# Results: US6458764B1, “GRF analogs with increased biological potency” (Theratechnologies Inc., priority 1995, dated 2002)
# Where no end group is shown, it is not given here. The star is where a group is joined. Hexenoyl(3E) = CC/C=C/CC(=O)*
# Tests used:
# [1] = system: IGF-1 levels in pig sera; experiment: Effect of hGRF(1-44)NH2 analogs on IGF-1 levels following S.C. chronic administration in growing male pigs (Example XI, IRMA); format: in vivo
# Description: The objective of this experiment was to compare the effects of 8 different hGRF(1-44)NH2 analogues including TH 9507 on IGF-1 levels following S.C. chronic administration in growing male pigs.
# Animal procedures were conducted as described in the protocol GRF-30 submitted Apr. 30, 1999, with the following modification: only 8 GRF analogues, including TH 9507, were provided by the sponsor. Accordingly, the study was performed on 30 pigs.
# Laboratory procedures were conducted as follow: IGF-l levels were measured in pig sera using a commercial kit (DSL-5600) purchased from Diagnostic Systems Laboratories Inc., Tex., USA. Briefly, IGF-1 levels are quantified using a two-site immunoradiometric assay (IRMA) following acid-ethanol extraction.
# Statistical analysis: IGF-1 data were subjected to a two-way repeated measures analysis of variance, with time (day 1, 3 or 6) and treatments (A to J) as variation factors pairwise multiple comparison procedures were then run by the Student-Newman-Keuls method. All statistical procedures were performed using the computerized SigmaStat software (Jandel Scientific). A P<0.05 was considered statistically significant.
# [2] = system: serum IGF-I; experiment: Repeated S.C. administrations of GRF analogs, serum IGF-I levels in pigs (Example I, Experiments 1-3; radioimmunoassay); format: in vivo, pigs (Landrace x Yorkshire); details: for serum IGF-I, Day 1 (pretreatment): pretreatment baseline
# Description: The objective of these experiments was to assess the potential of the GRF analogs as anabolic agents.
# Therefore, in order to investigate the anabolic potency of the fatty acid-GRF analogs, their ability to increase IGF-I levels following repeated S.C. administrations in pig was evaluated.
# 26 Landrace x Yorkshire castrated male pigs (40-45 kg BW) were randomly distributed into 4 experimental groups:
# Each animal was injected BID (twice a day) subcutaneously for 4 consecutive days. One blood sample was collected each morning prior to the first injection of the day, and the day after the last injection, for IGF-I measurement.
# 40 Landrace x Yorkshire castrated male pigs (40-45 kg BW) were randomly distributed into 5 experimental groups:
# Each animal was injected BID (twice a day) subcutaneously for 5 consecutive days. One blood sample was collected each morning prior to the first injection of the day, and the day after the last injection, for IGF-I measurement.
# 48 Landrace x Yorkshire castrated male pigs (40-45 kg BW) were randomly distributed into 6 experimental groups:
# The selected doses were 30 μg/kg for hGRF(1-44)NH2 analogs and 20 μg/kg for hGRF(1-29)NH2 analogs, which give identical doses on a molar basis. Each animal was injected BID (twice a day) subcutaneously for 5 consecutive days. One blood sample was collected each morning prior to the first injection of the day, and the day after the last injection, for IGF-I measurements.
# IGF-I levels were measured in pig serum by double antibody radioimmunoassay after formic acid-acetone extraction, as previously described (Abribat T. et al., 1993, J. Endocrinol., 39:583-589). The extraction prior to radioimmunoassay is a necessary step to remove endogenous IGF-binding proteins.
# In both experiments, the IGF-I data were analyzed by a two way repeated measure analysis of variance, with day and treatment (GRF analog) as sources of variation. Multiple comparison procedures were there run (Student-Newman Keuls method). A P<0.05 was considered as statistically significant.
# [3] = system: pig serum GH; experiment: Intravenous GH-releasing potency in pigs (Example III); format: in vivo, pigs (Landrace x Yorkshire); details: 4 μg/kg
# Description: This experiment was conducted to test the I.V. acute GH-releasing potency of (Hexenoyl trans-3)0 hGRF (1-29) NH2, a GRF analog, in a model physiologically close to human and to compare it to that of hGRF(1-29)NH2.
# (Hexenoyl trans-3)0 hGRF (1-29) NH2 is a combination of the natural hGRF(1-29)NH2 and natural fatty acids. This study was a multidose, single I.V. injection study.
# ADMINISTRATION: intravenous acute injection.
# (§1) TEST SYSTEM: Landrace x Yorkshire pigs.
# DESIGN: […] pigs (4 spare animals) were cannulated (a catheter surgically implanted in one jugular vein) within on week, before the study. On days 1 and 7, cannulated animals were randomly distributed into 7 groups (n=4 pigs per group).
# Blood samples for pGH assay were collected every 20 min from 1 hour before to 5 hours after GRF injections, with additional samplings 10 and 30 min after injection (n=21 samples). Blood samples are allowed to clot at +4° C. Serum will be harvested by centrifugation, stored at −20° C. and submitted to pGH assays.
# [4] = system: pig serum GH; experiment: Subcutaneous GH-releasing potency in pigs (Example IV); format: in vivo, pigs (Landrace x Yorkshire); details: for effect on GH area under the curve, 0 to 420 minutes following injection: S.C., FIG. 5
# Description: This experiment was conducted to test the S.C. acute GH-releasing potency of (Hexenoyl trans-3)0 hGRF (1-29) NH2, a GRF analog, in a model physiologically close to human and to compare it to that of hGRF(1-29)NH2.
# ADMINISTRATION: Subcutaneous acute injection.
# as §1
# DESIGN: Thirty six (36) pigs (4 spare animals) were cannulated (a catheter surgically implanted in one jugular vein) within one week, before the study. On days 1 and 7, cannulated animals were randomly distributed into 8 groups (n=4 pigs per group).
# Blood samples for pGH assay were collected every 20 min from 1 hour before to 7 hours after GRF injections, (n=25 samples). Blood samples were allowed to clot at +4CC. Serum is harvested by centrifugation, stored at −20° C. and submitted to pGH assays.
# [5] = metabolites have no residual biological activity; cited from earlier work
# [6] = Experiment 3, 30 μg/kg BID SC × 5 days, mean of 8
# [7] = Experiment 1, 20 μg/kg BID SC × 4 days, mean of 6 to 7
# [8] = Experiment 2, 40 μg/kg BID SC × 5 days, mean of 8
substance,measurement,setting,value
TH 9507: one of 8 different hGRF(1-44)NH2 analogues provided by the sponsor; structure not stated ({Hexenoyl(3E)}-YADAIFTNSYRKVLGQLSARKLLQDIMSRQQGESNQERGARARL-NH2),IGF-1 levels on day 6 compared to basal levels on day 1,"[1]; S.C. chronic administration in growing male pigs, FIG. 7",significantly increased IGF-1 levels
same,IGF-1 levels following 5 days of injection,"[1]; S.C. chronic administration in growing male pigs, saline group 190.1±21.0 ng/ml",279.1 ± 28.4 ng/mL
hGRF(1-44)NH2 (YADAIFTNSYRKVLGQLSARKLLQDIMSRQQGESNQERGARARL-NH2) [reference compound],effect on IGF-I levels,"[2]; Experiment 3, 30 μg/kg BID SC × 5 days, except a significant effect on day 5, not sustained on day 6",little or no effect on IGF-I levels
same,"serum IGF-I, Day 2",[2]; [6],254 ng/mL
same,"serum IGF-I, Day 3",[2]; [6],285 ng/mL
same,"serum IGF-I, Day 4",[2]; [6],297 ng/mL
same,"serum IGF-I, Day 5",[2]; [6],303 ng/mL
same,"serum IGF-I, Day 6",[2]; [6],296 ng/mL
same,"serum IGF-I, Day 1 (pretreatment)",[2]; [6],245 ng/mL
same,variations of IGF-1 concentrations in the study period,"[1]; injected subcutaneously in pigs twice a day at 10 ug/kg, FIG. 7",not able to induce any significant increase in IGF-1 levels
"hGRF (1-29)NH2 [hGRF(1-29)NH2, reference compound]",effect on IGF-I levels,"[2]; Experiment 1, 20 μg/kg BID SC × 4 days",ineffective
same,effect on IGF-I levels,"[2]; Experiment 1, 20 μg/kg BID SC × 4 days, listed as Human GRF(1-29)NH2",no effect on IGF-I levels
same,"serum IGF-I, Day 2",[2]; [7],235 ng/mL
same,"serum IGF-I, Day 3",[2]; [7],263 ng/mL
same,"serum IGF-I, Day 4",[2]; [7],258 ng/mL
same,"serum IGF-I, Day 5",[2]; [7],262 ng/mL
same,"serum IGF-I, Day 1 (pretreatment)",[2]; [7],252 ng/mL
same,serum IGF-I levels,"[2]; Experiment 2, 40 μg/kg BID SC × 5 days",remained stable
same,"serum IGF-I, Day 2",[2]; [8],243 ng/mL
same,"serum IGF-I, Day 3",[2]; [8],267 ng/mL
same,"serum IGF-I, Day 4",[2]; [8],275 ng/mL
same,"serum IGF-I, Day 5",[2]; [8],267 ng/mL
same,"serum IGF-I, Day 6",[2]; [8],256 ng/mL
same,"serum IGF-I, Day 1 (pretreatment)",[2]; [8],244 ng/mL
same,effect on GH area under the curve (0 to 300 minutes following injection),"[3]; I.V., FIG. 3",significant effect on GH secretion
same,duration of GH release following injection,"[3]; one intravenous injection, FIG. 2",approximately 60 minutes
same,"effect on GH area under the curve, 0 to 420 minutes following injection",[4]; 1.25 μg/kg,did not induce any significant GH response
same,"effect on GH area under the curve, 0 to 420 minutes following injection",[4]; 5 μg/kg,did not induce any significant GH response
same,"effect on GH area under the curve, 0 to 420 minutes following injection",[4]; 20 μg/kg,did not induce any significant GH response
same,duration of GH response following administration,"[4]; one subcutaneous injection, 5 μg/kg, FIG. 4",≤ 60 min
same,degradation in a serum medium,[5],rapidly degraded
